Reference: patent US11505531B2 (SOUTHERN RESEARCH INSTITUTE, priority 2018, dated 2022)

Test system: phospho-Smad 2
Experiment: Phospho-Smad 2 staining of tibiae from mice injected with CAG MM cells
Format: in vivo
Details: 4 weeks of treatment
Procedure: Referring to FIG. 3A-C, at 4 weeks of treatment, tibiae from mice injected with CAG MM cells were fixed and stained with antibody to phosphor-Smad 2. Left panels are from 2 different saline treated mice and the right panels are from LSKL-treated mice. Pixels of brown staining were quantified in 4 fields per animal. 5-6 animals per group were analyzed. Data are the percent area exceeding the threshold for positive staining (FIG. 3A). […] P=0.004.

Compound	phospho-Smad 2 in the bone marrow
LSKL	Reduces Phospho-Smad 2

Test system: MSCs
Experiment: Osteoblast differentiation by MSCs under osteogenic conditions (alkaline phosphatase staining, Runx2 RT-PCR)
Format: cell-based
Details: osteogenic media, TSP1 10 nM + LSKL 25 μM, 20 days
Procedure: Referring to FIG. 1A, MSCs were grown to confluence in basal (control) media. Cells were treated with control growth media, osteogenic media, or osteogenic media with TGF-β (5 ng/mL) or stripped TSP1 (10 nM), TSP1+LSKL (25 μM), TSP1+SLLK (25 μM control peptide), or TSP1+anti-TGF-β (5 μg/mL). Cultures were fed daily for 20 days. Alkaline phosphatase staining is representative of triplicate wells.
Referring to FIG. 1B, cells were treated every 2 days for 20 days with MSC growth media (control) or osteogenic media with TGF-β (5 ng/mL) or TSP1 (10 nM)±daily treatment with 25 μM LSKL or SLLK peptides. RNA isolated from cells was used for RT-PCR analysis of Runx2 expression. Samples were run in duplicate and each experimental treatment in triplicate.

Compound	osteoblast differentiation by MSCs
LSKL	Increases Osteoblast Differentiation

Test system: CAG-heparanase MM cells
Experiment: PAI-1 promoter luciferase reporter assay of conditioned media of TSP1-treated CAG-heparanase MM cells
Format: cell-based, human
Details: cells treated with 67 nM TSP1
Procedure: Referring to FIG. 4B, CAG-heparanase MM cells were treated with 67 nM TSP1 and conditioned media were assessed for TGF-β activity using PAI-1 promoter luciferase reporter assay. There is ˜[…] TGF-β in the added TSP1 and LSKL blocks 80% of the CAG-heparanase MM cell generated TGF-β activity.

Compound	block of CAG-heparanase MM cell generated TGF-β activity [%]
LSKL	80

Test system: CAG MM cells
Experiment: Phospho-Smad 2 immunoblot in TSP1-treated CAG MM cells
Format: cell-based, human
Details: 30 nM TSP1 for 6 hrs ± LSKL
Procedure: Referring to FIG. 4A, CAG MM cells were incubated with 30 nM TSP1 for 6 hrs±LSKL or SLLK. Cell lysates were immunoblotted for phosphor-Smad 2. Blots were stripped and reprobed for total Smad 2/3 and GAPDH. Results are normalized to GAPDH (untreated controls=1). LSKL reduces TSP1 induced treatment or luciferase activity in cells treated with active TGF-β (not shown).

Compound	TGF-β activity (phospho-Smad 2) in CAG MM cells
LSKL	Reduces TGF-B Activity

Target: T1, TGF-β mediated by TSP-1 (purified human platelet TSP-1 + recombinant latent TGF-β1) (Homo sapiens, UniProt P07996)
T1 construct: purified human platelet TSP-1 was incubated with compounds; tissue R&D Systems (latent TGF-β1 only); host or cells: human platelets (TSP-1)
T1 sequence (P07996 19-1170): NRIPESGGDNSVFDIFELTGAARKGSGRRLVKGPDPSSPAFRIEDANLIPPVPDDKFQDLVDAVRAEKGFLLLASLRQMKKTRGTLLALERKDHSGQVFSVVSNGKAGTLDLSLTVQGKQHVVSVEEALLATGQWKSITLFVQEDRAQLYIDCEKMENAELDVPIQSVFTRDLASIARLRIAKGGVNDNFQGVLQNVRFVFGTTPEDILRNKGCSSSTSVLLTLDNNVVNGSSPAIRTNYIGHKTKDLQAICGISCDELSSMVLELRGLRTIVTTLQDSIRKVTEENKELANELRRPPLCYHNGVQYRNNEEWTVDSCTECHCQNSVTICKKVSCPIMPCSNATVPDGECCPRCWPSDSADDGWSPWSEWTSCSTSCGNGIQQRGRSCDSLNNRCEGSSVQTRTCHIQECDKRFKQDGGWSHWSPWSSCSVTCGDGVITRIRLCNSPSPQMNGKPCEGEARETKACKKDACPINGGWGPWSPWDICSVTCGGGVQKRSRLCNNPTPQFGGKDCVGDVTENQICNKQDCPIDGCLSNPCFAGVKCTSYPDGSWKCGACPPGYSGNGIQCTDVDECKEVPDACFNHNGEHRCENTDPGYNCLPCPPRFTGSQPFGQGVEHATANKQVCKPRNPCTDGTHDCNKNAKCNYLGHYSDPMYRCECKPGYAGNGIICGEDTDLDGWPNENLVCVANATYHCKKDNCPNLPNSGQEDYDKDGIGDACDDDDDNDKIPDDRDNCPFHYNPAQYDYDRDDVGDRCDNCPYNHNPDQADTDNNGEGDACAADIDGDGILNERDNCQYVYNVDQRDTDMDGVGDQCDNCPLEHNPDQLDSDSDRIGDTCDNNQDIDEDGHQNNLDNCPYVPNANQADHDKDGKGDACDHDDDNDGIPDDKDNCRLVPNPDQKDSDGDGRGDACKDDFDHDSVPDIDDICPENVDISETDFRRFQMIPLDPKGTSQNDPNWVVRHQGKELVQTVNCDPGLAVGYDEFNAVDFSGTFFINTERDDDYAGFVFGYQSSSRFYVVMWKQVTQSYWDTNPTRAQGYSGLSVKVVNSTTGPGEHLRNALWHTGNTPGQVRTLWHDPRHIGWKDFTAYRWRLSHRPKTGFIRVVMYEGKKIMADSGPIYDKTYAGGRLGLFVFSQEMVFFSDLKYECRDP
Experiment: In vitro ELISA assay: TSP-1 incubated with compound, then with recombinant latent TGF-β1; active TGF-β detected
Format: biochemical
Details: At 10 pM; read-out: Inhibition of TGF-β mediated by TSP-1 in vitro Elisa assay at [Inhibitor]
Procedure: For initial screening, an ELISA-based screening assay was used in which purified human platelet TSP-1 was incubated with compounds and then incubated with recombinant latent TGF-β1 (purchased from R&D Systems). Activity is measured in a commercially available ELISA which detects only active TGF-β (R &D Systems). Activity in the presence of compounds is compared to activity in TSP-1+latent TGF-β samples without inhibitory compounds (Lu et al. (2016) Am J Pathol 186:678-690).

Compound	inhibition at 10 pM [%]
NCCCC[C@@H]1NC(=O)CNC1=O [Compound 1, (S)-3-(4-aminobutyl)piperazine-2,5-dione]	-67
CC1(C)NC(=O)[C@H](CCCCN)NC1=O [Compound 2, (S)-6-(4-aminobutyl)-3,3-dimethylpiperazine-2,5-dione]	73
Nc1ccc(C[C@@H]2NC(=O)CNC2=O)cc1 [Compound 3, (S)-3-(4-aminobenzyl)piperazine-2,5-dione]	66

Same assay, conditions: At 50 pM; read-out: Inhibition of TGF-β mediated by TSP-1 in vitro Elisa assay at [Inhibitor]

Compound	inhibition at 50 pM [%]
NCCCC[C@@H]1NC(=O)CNC1=O [Compound 1, (S)-3-(4-aminobutyl)piperazine-2,5-dione]	-4
CC1(C)NC(=O)[C@H](CCCCN)NC1=O [Compound 2, (S)-6-(4-aminobutyl)-3,3-dimethylpiperazine-2,5-dione]	91
Nc1ccc(C[C@@H]2NC(=O)CNC2=O)cc1 [Compound 3, (S)-3-(4-aminobenzyl)piperazine-2,5-dione]	68

Same assay, conditions: At 100 pM; read-out: Inhibition of TGF-β mediated by TSP-1 in vitro Elisa assay at [Inhibitor]

Compound	inhibition at 0.0001 µM [%]
NCCCC[C@@H]1NC(=O)CNC1=O [Compound 1, (S)-3-(4-aminobutyl)piperazine-2,5-dione]	37
CC1(C)NC(=O)[C@H](CCCCN)NC1=O [Compound 2, (S)-6-(4-aminobutyl)-3,3-dimethylpiperazine-2,5-dione]	89
Nc1ccc(C[C@@H]2NC(=O)CNC2=O)cc1 [Compound 3, (S)-3-(4-aminobenzyl)piperazine-2,5-dione]	90

Test system: TGF-β mediated by TSP-1
Experiment: Cell-based assay of inhibition of TGF-β mediated by TSP-1
Design: species or system human
Details: not given
Procedure: To specifically assess activity of compounds in liver cell specific assays, two different assays were used. In the first, human hepatic stellate cells were incubated overnight in low serum media to condition the media with secreted latent […]. Purified TSP1 either preincubated with compounds or not will be added to cultures and then conditioned media harvested to assess TGF-β biological activity using the R&D Systems ELISA as above. Hepatic stellate cells will be purchased from commercial sources. Although hepatic stellate cells are the primary drivers of liver fibrosis, conditions which drive liver fibrosis can induce hepatocyte TSP-1 expression which can then have paracrine effects on controlling TGF-β activation in hepatic stellate cells. Furthermore, TGF-β can negatively impact hepatocyte regeneration following injury. Therefore, the ability of compounds to block TSP-1 activation of latent TGF-β will also be assessed in cultured primary human hepatocytes following the protocol described for the hepatic stellate cells. Similar approaches have successfully been used to screen compounds which inhibit human myeloma cell derived latent TGF-β activation by TSP-1 (Lu et al. (2016) Am J Pathol 186:678-690).

Compound	Inhibition of TGF-β mediated by TSP-1 cell-based assay (result in words)
CC1(C)NC(=O)[C@@H](CCCCN)NC1=O [Compound 10, (R)-6-(4-aminobutyl)-3,3-dimethylpiperazine-2,5-dione]	Inactive

Same assay, conditions: Homo sapiens; At 10 nM; read-out: Inhibition of TGF-β mediated by TSP-1 cell-based assay at [Inhibitor]

Compound	inhibition at 0.01 µM [%]
NCCCC[C@@H]1NC(=O)CNC1=O [Compound 1, (S)-3-(4-aminobutyl)piperazine-2,5-dione]	38
CC1(C)NC(=O)[C@H](CCCCN)NC1=O [Compound 2, (S)-6-(4-aminobutyl)-3,3-dimethylpiperazine-2,5-dione]	38
Nc1ccc(C[C@@H]2NC(=O)CNC2=O)cc1 [Compound 3, (S)-3-(4-aminobenzyl)piperazine-2,5-dione]	13
CC1(C)NC(=O)[C@H](Cc2ccc(N)cc2)NC1=O [Compound 4, (S)-6-(4-aminobenzyl)-3,3-dimethylpiperazine-2,5-dione]	80
CC1(C)NC(=O)[C@H](Cc2cccc(CN)c2)NC1=O [Compound 6]	75
NCCCC[C@@H]1NC(=O)C2(CCCC2)NC1=O [Compound 7]	72
Nc1ccc(C[C@@H]2NC(=O)C3(CCC3)NC2=O)cc1 [Compound 8, (S)-7-(4-aminobenzyl)-5,8-diazaspiro[3.5]nonane-6,9-dione]	62
Nc1ccc(C[C@@H]2NC(=O)C3(CCCC3)NC2=O)cc1 [Compound 9, (S)-8-(4-aminobenzyl)-6,9-diazaspiro[4.5]decane-7,10-dione]	40
CC1(C)NC(=O)[C@H](Cc2ccc(C(N)=O)cc2)NC1=O [Compound 11, (S)-4-((5,5-dimethyl-3,6-dioxopiperazin-2-yl)methyl)benzamide]	25
NC(=O)c1ccc(C[C@@H]2NC(=O)CNC2=O)cc1 [Compound 12, (S)-4-((3,6-dioxopiperazin-2-yl)methyl)benzamide]	40
NC(=O)c1ccc(C[C@@H]2NC(=O)C3(CCCC3)NC2=O)cc1 [Compound 13, (S)-4-((7,10-dioxo-6,9-diazaspiro[4.5]decan-8-yl)methyl)benzamide]	8
NCCC[C@@H]1NC(=O)C2(CCCC2)NC1=O [Compound 14, (S)-8-(3-aminopropyl)-6,9-diazaspiro[4.5]decane-7,10-dione]	54
Nc1ccc(C[C@@H]2NC(=O)C3(CCCCC3)NC2=O)cc1 [Compound 15, (S)-3-(4-aminobenzyl)-1,4-diazaspiro[5.5]undecane-2,5-dione]	49

Same assay, conditions: Homo sapiens; At 100 nM; read-out: Inhibition of TGF-β mediated by TSP-1 cell-based assay at [Inhibitor]

Compound	inhibition at 0.1 µM [%]
NCCCC[C@@H]1NC(=O)CNC1=O [Compound 1, (S)-3-(4-aminobutyl)piperazine-2,5-dione]	59
CC1(C)NC(=O)[C@H](CCCCN)NC1=O [Compound 2, (S)-6-(4-aminobutyl)-3,3-dimethylpiperazine-2,5-dione]	71
Nc1ccc(C[C@@H]2NC(=O)CNC2=O)cc1 [Compound 3, (S)-3-(4-aminobenzyl)piperazine-2,5-dione]	32
CC1(C)NC(=O)[C@H](Cc2ccc(N)cc2)NC1=O [Compound 4, (S)-6-(4-aminobenzyl)-3,3-dimethylpiperazine-2,5-dione]	78
CC1(C)NC(=O)[C@H](Cc2cccc(CN)c2)NC1=O [Compound 6]	96
NCCCC[C@@H]1NC(=O)C2(CCCC2)NC1=O [Compound 7]	89
Nc1ccc(C[C@@H]2NC(=O)C3(CCC3)NC2=O)cc1 [Compound 8, (S)-7-(4-aminobenzyl)-5,8-diazaspiro[3.5]nonane-6,9-dione]	89
Nc1ccc(C[C@@H]2NC(=O)C3(CCCC3)NC2=O)cc1 [Compound 9, (S)-8-(4-aminobenzyl)-6,9-diazaspiro[4.5]decane-7,10-dione]	92
CC1(C)NC(=O)[C@H](Cc2ccc(C(N)=O)cc2)NC1=O [Compound 11, (S)-4-((5,5-dimethyl-3,6-dioxopiperazin-2-yl)methyl)benzamide]	39
NC(=O)c1ccc(C[C@@H]2NC(=O)CNC2=O)cc1 [Compound 12, (S)-4-((3,6-dioxopiperazin-2-yl)methyl)benzamide]	65.6
NC(=O)c1ccc(C[C@@H]2NC(=O)C3(CCCC3)NC2=O)cc1 [Compound 13, (S)-4-((7,10-dioxo-6,9-diazaspiro[4.5]decan-8-yl)methyl)benzamide]	24.6
NCCC[C@@H]1NC(=O)C2(CCCC2)NC1=O [Compound 14, (S)-8-(3-aminopropyl)-6,9-diazaspiro[4.5]decane-7,10-dione]	85
Nc1ccc(C[C@@H]2NC(=O)C3(CCCCC3)NC2=O)cc1 [Compound 15, (S)-3-(4-aminobenzyl)-1,4-diazaspiro[5.5]undecane-2,5-dione]	85

Same assay, conditions: Homo sapiens; At 1 μM; read-out: Inhibition of TGF-β mediated by TSP-1 cell-based assay at [Inhibitor]

Compound	inhibition at 1 µM [%]
NCCCC[C@@H]1NC(=O)CNC1=O [Compound 1, (S)-3-(4-aminobutyl)piperazine-2,5-dione]	74.5
CC1(C)NC(=O)[C@H](CCCCN)NC1=O [Compound 2, (S)-6-(4-aminobutyl)-3,3-dimethylpiperazine-2,5-dione]	76
Nc1ccc(C[C@@H]2NC(=O)CNC2=O)cc1 [Compound 3, (S)-3-(4-aminobenzyl)piperazine-2,5-dione]	75
CC1(C)NC(=O)[C@H](Cc2ccc(N)cc2)NC1=O [Compound 4, (S)-6-(4-aminobenzyl)-3,3-dimethylpiperazine-2,5-dione]	83
CC1(C)NC(=O)[C@H](Cc2cccc(CN)c2)NC1=O [Compound 6]	97
NCCCC[C@@H]1NC(=O)C2(CCCC2)NC1=O [Compound 7]	92
Nc1ccc(C[C@@H]2NC(=O)C3(CCC3)NC2=O)cc1 [Compound 8, (S)-7-(4-aminobenzyl)-5,8-diazaspiro[3.5]nonane-6,9-dione]	92
Nc1ccc(C[C@@H]2NC(=O)C3(CCCC3)NC2=O)cc1 [Compound 9, (S)-8-(4-aminobenzyl)-6,9-diazaspiro[4.5]decane-7,10-dione]	> 100
CC1(C)NC(=O)[C@H](Cc2ccc(C(N)=O)cc2)NC1=O [Compound 11, (S)-4-((5,5-dimethyl-3,6-dioxopiperazin-2-yl)methyl)benzamide]	40
NC(=O)c1ccc(C[C@@H]2NC(=O)CNC2=O)cc1 [Compound 12, (S)-4-((3,6-dioxopiperazin-2-yl)methyl)benzamide]	68
NC(=O)c1ccc(C[C@@H]2NC(=O)C3(CCCC3)NC2=O)cc1 [Compound 13, (S)-4-((7,10-dioxo-6,9-diazaspiro[4.5]decan-8-yl)methyl)benzamide]	19.6
NCCC[C@@H]1NC(=O)C2(CCCC2)NC1=O [Compound 14, (S)-8-(3-aminopropyl)-6,9-diazaspiro[4.5]decane-7,10-dione]	90
Nc1ccc(C[C@@H]2NC(=O)C3(CCCCC3)NC2=O)cc1 [Compound 15, (S)-3-(4-aminobenzyl)-1,4-diazaspiro[5.5]undecane-2,5-dione]	94

Same assay, conditions: Homo sapiens; assay not stated; given only for compounds tested in the cell-based assay

Compound	IC50 [nM]
CC1(C)NC(=O)[C@H](Cc2ccc(N)cc2)NC1=O [Compound 4, (S)-6-(4-aminobenzyl)-3,3-dimethylpiperazine-2,5-dione]	1
CC1(C)NC(=O)[C@H](Cc2cccc(CN)c2)NC1=O [Compound 6]	1
NCCCC[C@@H]1NC(=O)C2(CCCC2)NC1=O [Compound 7]	0.85
Nc1ccc(C[C@@H]2NC(=O)C3(CCC3)NC2=O)cc1 [Compound 8, (S)-7-(4-aminobenzyl)-5,8-diazaspiro[3.5]nonane-6,9-dione]	4
Nc1ccc(C[C@@H]2NC(=O)C3(CCCC3)NC2=O)cc1 [Compound 9, (S)-8-(4-aminobenzyl)-6,9-diazaspiro[4.5]decane-7,10-dione]	11

Test system: CAG human myeloma cells
Experiment: SCID-tibia MM model, tumor burden (bioluminescence, serum Ig kappa)
Format: in vivo, SCID mice
Details: LSKL 30 mg/kg/day by subcutaneous osmotic pump, 2 and 4 weeks
Procedure: Referring to FIG. 2A and FIG. 2B, CAG human myeloma cells were injected into the intratibial marrow space of SCID mice. After 2 weeks, tumors were imaged by bioluminescence and serum 1 g kappa levels measured. Mice were randomized to equalize 1 g kappa levels. Osmotic pumps were implanted subcutaneously to deliver saline or LSKL peptide (30 mg/kg/day) (n=10/group). Tumors were imaged and serum 1 g kappa levels measured at 2 and 4 weeks of treatment. Data are means±SEM. Bioluminescence; *p=0.019 ANOVA, serum kappa; p=0.037, t-test.

Compound	MM tumor burden
LSKL	Reduces MM Tumor Burden

Test system: not given
Experiment: not given
Details: 30 mg/kg i.p., 3 times weekly, 15 weeks; cited from earlier work

Compound	necropsy findings after chronic treatment
LSKL	no inflammation, no tumors in all major organs, and no impairment of wound healing

Test system: not given
Experiment: not given
Details: cited from earlier work

Compound	plasma stability half-life [min]
LSKL	2.1
